Data published in article PMC7655109, “High-resolution structures of multiple 5-HT3AR-setron complexes reveal a novel mechanism of competitive inhibition” (eLife, 2020).

Tests used:
Assay type in all cases: cell-based
[1] = target: T1, 5-HT3AR (serotonin (3) receptor subunit A, homopentamer) (Mus musculus, UniProt P23979); assay: cryo-EM structure ([…] Å); also TEVC inhibition of serotonin currents in oocytes
T1 construct: gene Htr3a; full-length, C-terminal 1D4-tag and four N-terminal strep-tags; modelled Thr7–Leu335 and Leu397–Ser462
T1 sequence (P23979 34-483 isoform P23979-2): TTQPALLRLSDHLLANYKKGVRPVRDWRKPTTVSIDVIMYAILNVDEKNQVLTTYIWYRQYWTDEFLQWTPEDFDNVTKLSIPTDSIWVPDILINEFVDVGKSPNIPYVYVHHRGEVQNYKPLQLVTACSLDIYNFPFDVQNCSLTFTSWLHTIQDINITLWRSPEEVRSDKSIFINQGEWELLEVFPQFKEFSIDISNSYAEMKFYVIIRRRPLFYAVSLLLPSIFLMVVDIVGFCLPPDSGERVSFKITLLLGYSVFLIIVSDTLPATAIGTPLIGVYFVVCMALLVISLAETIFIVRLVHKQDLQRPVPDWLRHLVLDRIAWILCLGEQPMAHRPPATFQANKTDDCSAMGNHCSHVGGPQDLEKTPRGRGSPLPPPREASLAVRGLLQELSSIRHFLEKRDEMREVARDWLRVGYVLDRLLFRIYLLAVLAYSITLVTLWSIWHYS

[2] = target: T2, 5-HT3AR (serotonin (3) receptor subunit A, homopentamer) (Mus musculus, UniProt P23979); assay: two-electrode voltage clamp in oocytes, inhibition of serotonin-induced current on co-application
T2 construct: gene Htr3a; 5-HT3AR expressed in Xenopus laevis oocytes
T2 sequence (P23979 24-489): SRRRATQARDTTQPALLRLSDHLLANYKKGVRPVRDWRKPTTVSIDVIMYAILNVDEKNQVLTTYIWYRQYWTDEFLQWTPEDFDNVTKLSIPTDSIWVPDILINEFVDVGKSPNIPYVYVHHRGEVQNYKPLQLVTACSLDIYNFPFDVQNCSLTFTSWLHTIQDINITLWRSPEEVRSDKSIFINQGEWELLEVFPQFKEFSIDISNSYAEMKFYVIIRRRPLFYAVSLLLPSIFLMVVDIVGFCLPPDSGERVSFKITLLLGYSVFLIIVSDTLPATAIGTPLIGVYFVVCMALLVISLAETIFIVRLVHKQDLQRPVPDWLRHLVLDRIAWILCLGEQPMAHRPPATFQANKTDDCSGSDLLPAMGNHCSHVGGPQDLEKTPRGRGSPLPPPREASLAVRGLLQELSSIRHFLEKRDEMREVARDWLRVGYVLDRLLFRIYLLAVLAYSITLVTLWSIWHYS

[3] = target: T1, 5-HT3AR (serotonin (3) receptor subunit A, homopentamer); assay: cryo-EM structure ([…] Å); also TEVC inhibition of serotonin currents in oocytes; remark: listed apart in the source
[4] = target: T1, 5-HT3AR (serotonin (3) receptor subunit A, homopentamer); assay: as above; remark: listed apart in the source

Question: `Cc1[nH]cnc1CN1CCc2c(c3ccccc3n2C)C1=O` [alosetron] was tested. Which “potency for TEVC inhibition of serotonin currents” value [1] did it give?
Answer: Its value is ~ 0.1 nM.

Question: Which “two-electrode voltage clamp in oocytes, inhibition of serotonin-induced current” value [2] does the source give for `CN1C2CCCC1CC(NC(=O)c1nn(C)c3ccccc13)C2` (stereo not shown) [granisetron] here?
Answer: Its value is ~ 1 nM.

Question: How did the “inhibition of serotonin currents in oocytes” value [3] turn out when `Cc1nccn1CC1CCc2c(c3ccccc3n2C)C1=O` (stereo not shown) [ondansetron] was run?
Answer: The value was ~ 0.1 nM.

Question: For `O=C1c2cccc3c2[C@H](CCC3)CN1[C@@H]1CN2CCC1CC2` [palonosetron], which “cryo-EM structure (3.32 Å); also TEVC inhibition of serotonin currents in oocyte” value [4] is on record?
Answer: The value was ~ 1 nM.
